Experimental data as given in patent US6737383B1, “Herbicidal oxadiazolidines” (priority 1999, dated 2004).

How the values were obtained:
rape = assay: Test B pre/postemergence rape; type: in vivo, Brassica napus
How it was run: (§1)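 Test chemicals in a non-phytotoxic solvent mixture with surfactant were sprayed preemergence onto planted seeds and postemergence onto plants 2 to 18 cm tall (1- to 4-leaf stage). After twelve to sixteen days in a greenhouse, injury was visually rated against untreated controls from 0 (no effect) to 10 (complete control).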

purple nutsedge = assay: Test B pre/postemergence purple nutsedge; type: in vivo, Cyperus rotundus
How it was run: as §1

giant foxtail = assay: Test B pre/postemergence giant foxtail; type: in vivo, Setaria faberii
How it was run: as §1

duck salad = assay: Test B flood test duck salad; type: in vivo, Heteranthera limosa
How it was run: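 Each value is a visual injury score relative to controls, with 10 meaning complete control and 0 no effect. Evaluation took place twelve to sixteen days after the 2-leaf-stage plants were treated and kept in the greenhouse.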

pigweed = assay: Test B pre/postemergence pigweed; type: in vivo, Amaranthus retroflexus
How it was run: as §1

cocklebur = assay: Test B pre/postemergence cocklebur; type: in vivo, Xanthium strumarium
How it was run: as §1

corn = assay: Test B pre/postemergence corn; type: in vivo, Zea mays
How it was run: as §1

soybean = assay: Test B pre/postemergence soybean; type: in vivo, Glycine max
How it was run: as §1

bedstraw = assay: Test B pre/postemergence bedstraw; type: in vivo, Galium aparine
How it was run: as §1

crabgrass = assay: Test B pre/postemergence crabgrass; type: in vivo, Digitaria sanguinalis
How it was run: as §1

wheat = assay: Test B pre/postemergence wheat; type: in vivo, Triticum aestivum
How it was run: as §1

sugar beet = assay: Test B pre/postemergence sugar beet; type: in vivo, Beta vulgaris
How it was run: as §1

velvetleaf = assay: Test B pre/postemergence velvetleaf; type: in vivo, Abutilon theophrasti
How it was run: as §1

morningglory = assay: Test B pre/postemergence morningglory; type: in vivo, Ipomoea hederacea
How it was run: as §1

surinam grass = assay: Test B pre/postemergence surinam grass; type: in vivo, Brachiaria decumbens
How it was run: as §1

[1] = Postemergence, Rate 62 g/ha, scale 0 to 10, 0 is no effect, 10 is complete control
[2] = Postemergence, Rate 250 g/ha, scale 0 to 10, 0 no effect, 10 complete control
[3] = Preemergence, Rate 62 g/ha, scale 0 to 10 (0 no effect, 10 complete control)
[4] = Preemergence, Rate 125 g/ha, scale 0 to 10 (0 no effect, 10 complete control)
[5] = Preemergence, Rate 250 g/ha, scale of 0 to 10 where 0 is no effect and 10 is complete control
[6] = Preemergence, Rate 500 g/ha, scale 0 (no effect) to 10 (complete control)
[7] = Rate 125 g/ha, Postemergence, scale 0 to 10, 0 no effect, 10 complete control
[8] = Rate 500 g/ha, Postemergence, scale 0 to 10, 0 no effect, 10 complete control

Cc1ccccc1-n1c(=O)on(C(=O)N(c2cc(F)cc(F)c2)C(C)C)c1=O [Compound 67]
Rape plant response rating (rape; [1]): 0
Rape plant response rating (rape; [2]): 0
Rape plant response rating (rape; [3]): 0
Plant response rating, Rape (rape; [4]): 0
Plant response rating, Rape (rape; [5]): 0
Rape plant response rating (rape; [6]): 0
Rape plant response rating (rape; [7]): 0
Rape plant response rating (rape; [8]): 2
Nutsedge plant response rating (purple nutsedge; [1]): 0
Nutsedge plant response rating (purple nutsedge; [2]): 0
Nutsedge plant response rating (purple nutsedge; [3]): 0
Plant response rating, Nutsedge (purple nutsedge; [4]): 0
Plant response rating, Nutsedge (purple nutsedge; [5]): 0
Nutsedge plant response rating (purple nutsedge; [6]): 0
Nutsedge plant response rating (purple nutsedge; [7]): 0
Nutsedge plant response rating (purple nutsedge; [8]): 0
Giant foxtail plant response rating (giant foxtail; [1]): 0
Giant foxtail plant response rating (giant foxtail; [2]): 0
Giant foxtail plant response rating (giant foxtail; [3]): 3
Plant response rating, Giant foxtail (giant foxtail; [4]): 7
Plant response rating, Giant foxtail (giant foxtail; [5]): 8
Giant foxtail plant response rating (giant foxtail; [6]): 8
Giant foxtail plant response rating (giant foxtail; [7]): 0
Giant foxtail plant response rating (giant foxtail; [8]): 0
Ducksalad plant response rating (duck salad; [1]): 0
Ducksalad plant response rating (duck salad; Rate 125 g/ha, Postemergence section (flood test species), scale 0 to 10, 0 no effect, 10 complete control): 0
Ducksalad plant response rating (duck salad; Rate 500 g/ha, listed under Postemergence (flood test species), scale 0 to 10, 0 no effect, 10 complete control): 0
Ducksalad plant response rating (duck salad; flood test, listed under Postemergence, Rate 250 g/ha, scale 0 to 10, 0 no effect, 10 complete control): 0
Redroot pigweed plant response rating (pigweed; [1]): 0
Redroot pigweed plant response rating (pigweed; [2]): 0
Redroot pigweed plant response rating (pigweed; [3]): 4
Plant response rating, Redroot pigweed (pigweed; [4]): 4
Plant response rating, Redroot pigweed (pigweed; [5]): 9
Redroot pigweed plant response rating (pigweed; [6]): 10
Redroot pigweed plant response rating (pigweed; [7]): 0
Redroot pigweed plant response rating (pigweed; [8]): 4
Cocklebur plant response rating (cocklebur; [1]): 0
Cocklebur plant response rating (cocklebur; [2]): 1
Cocklebur plant response rating (cocklebur; [3]): 0
Plant response rating, Cocklebur (cocklebur; [4]): 0
Plant response rating, Cocklebur (cocklebur; [5]): 0
Cocklebur plant response rating (cocklebur; [6]): 0
Cocklebur plant response rating (cocklebur; [7]): 0
Cocklebur plant response rating (cocklebur; [8]): 1
Corn plant response rating (corn; [1]): 0
Corn plant response rating (corn; [2]): 0
Corn plant response rating (corn; [3]): 0
Plant response rating, Corn (corn; [4]): 0
Plant response rating, Corn (corn; [5]): 0
Corn plant response rating (corn; [6]): 0
Corn plant response rating (corn; [7]): 0
Corn plant response rating (corn; [8]): 0
Soybean plant response rating (soybean; [1]): 0
Soybean plant response rating (soybean; [2]): 1
Soybean plant response rating (soybean; [3]): 0
Plant response rating, Soybean (soybean; [4]): 0
Plant response rating, Soybean (soybean; [5]): 0
Soybean plant response rating (soybean; [6]): 0
Soybean plant response rating (soybean; [7]): 1
Soybean plant response rating (soybean; [8]): 1
Bedstraw plant response rating (bedstraw; [1]): 0
Bedstraw plant response rating (bedstraw; [2]): 7
Bedstraw plant response rating (bedstraw; [3]): 0
Plant response rating, Bedstraw (bedstraw; [4]): 0
Plant response rating, Bedstraw (bedstraw; [5]): 0
Bedstraw plant response rating (bedstraw; [6]): 0
Bedstraw plant response rating (bedstraw; [7]): 5
Bedstraw plant response rating (bedstraw; [8]): 8
Crabgrass plant response rating (crabgrass; [1]): 0
Crabgrass plant response rating (crabgrass; [2]): 0
Crabgrass plant response rating (crabgrass; [3]): 2
Plant response rating, Crabgrass (crabgrass; [4]): 4
Plant response rating, Crabgrass (crabgrass; [5]): 4
Crabgrass plant response rating (crabgrass; [6]): 7
Crabgrass plant response rating (crabgrass; [7]): 0
Crabgrass plant response rating (crabgrass; [8]): 0
Wheat plant response rating (wheat; [1]): 0
Wheat plant response rating (wheat; [2]): 0
Wheat plant response rating (wheat; [3]): 0
Plant response rating, Wheat (wheat; [4]): 0
Plant response rating, Wheat (wheat; [5]): 0
Wheat plant response rating (wheat; [6]): 0
Wheat plant response rating (wheat; [7]): 0
Wheat plant response rating (wheat; [8]): 0
Sugarbeets plant response rating (sugar beet; [1]): 0
Sugarbeets plant response rating (sugar beet; [2]): 0
Sugarbeets plant response rating (sugar beet; [3]): 0
Plant response rating, Sugarbeets (sugar beet; [4]): 0
Plant response rating, Sugarbeets (sugar beet; [5]): 0
Sugarbeets plant response rating (sugar beet; [6]): 3
Sugarbeets plant response rating (sugar beet; [7]): 0
Sugarbeets plant response rating (sugar beet; [8]): 2
Velvetleaf plant response rating (velvetleaf; [1]): 0
Velvetleaf plant response rating (velvetleaf; [2]): 0
Velvetleaf plant response rating (velvetleaf; [3]): 0
Plant response rating, Velvetleaf (velvetleaf; [4]): 0
Plant response rating, Velvetleaf (velvetleaf; [5]): 0
Velvetleaf plant response rating (velvetleaf; [6]): 0
Velvetleaf plant response rating (velvetleaf; [7]): 0
Velvetleaf plant response rating (velvetleaf; [8]): 0
Morningglory plant response rating (morningglory; [1]): 0
Morningglory plant response rating (morningglory; [2]): 2
Morningglory plant response rating (morningglory; [3]): 0
Plant response rating, Morningglory (morningglory; [4]): 0
Plant response rating, Morningglory (morningglory; [5]): 0
Morningglory plant response rating (morningglory; [6]): 0
Morningglory plant response rating (morningglory; [7]): 2
Morningglory plant response rating (morningglory; [8]): 6
B. signalgrass plant response rating (surinam grass; [1]): 0
B. signalgrass plant response rating (surinam grass; [2]): 0
B. signalgrass plant response rating (surinam grass; [3]): 0
Plant response rating, B. signalgrass (surinam grass; [4]): 0
Plant response rating, B. signalgrass (surinam grass; [5]): 0
B. signalgrass plant response rating (surinam grass; [6]): 2
B. signalgrass plant response rating (surinam grass; [7]): 0
B. signalgrass plant response rating (surinam grass; Rate 500 g/ha, Postemergence, scale of 0 to 10 where 0 is no effect and 10 is complete control): 0
